Results reported in patent US20140336182A1, “Aurora Kinase Modulators and Method of Use” (Amgen Inc., priority 2013, published 2014).

test system: HeLa cells; assay: HeLa cell 24 hr ploidy assay (DNA content); assay type: cell-based; details: Homo sapiens, HeLa, 4N ploidy, average, read-out: 24h_4NPloidy EC50_IP (uM Avg)
Procedure: HeLa cell 24 hr ploidy assay protocol
The purpose of this assay is to evaluate the ability of selected individual compounds to induce Deoxyribonucleic acid (DNA) content (ploidy) in cells through failed cell division. Cell cycle analysis is a rapid and efficient way to evaluate the status of DNA content (ploidy) of a given cell. HeLa cells (1×10^4 HeLa cells/well) in 100 ul of media (MEM+10% FBS) were plated in 96-well plates (Packard View) and cultured for 24 hrs at 37° C. maintained in a 5% CO2 atmosphere. […] The compounds were serially diluted in DMSO (0.25% final concentration). The cells were fixed (3.7% Formaldehyde and 1% glutaraldehyde) and permeabilized (1×PBS with 1% BSA and 0.2% Triton X-100) in preparation for nuclear staining. The well plates were stained for 45 minutes at RT in the dark using Hoechest 33342 nuclear stain at 0.5 ug.ml (Stock of 10 mg/ml, Invitrogen, CA, Cat #H3570). The nuclear stain was removed by aspiration and the cells were washed with wash buffer. A Cellomics Array Scan Vti plate reader was used to acquire the DNA ploidy data of the cells using Cell Cycle bioapplication. Numbers for each of “valid cell count/well”, “% of 4N cells” and “% of >4Ncells” were calculated with the assistance of an Activity Base 5.1ca software and dose curves were generated using an XLFit software. With XLFit, final EC50 IP and EC50 transit values, as well as the Max and Min, were calculated for each curve.

Compared with `COc1cc2nccc(Oc3ccc(Nc4nnc(-n5nc(C)cc5C)c5ccccc45)cc3F)c2cc1OC` [compound 77], `COc1cc2nccc(Oc3ccc(Nc4nnc(-c5cccs5)c5ccccc45)cc3F)c2cc1OC` [compound 76] is 52-fold lower in EC50: 3.09 µM for the first, 0.06 µM for the second. The second is the more potent here.

Going from `COc1cc2nccc(Oc3ccc(Nc4nnc(-c5cccc(CO)n5)c5ccccc45)cc3)c2cc1OC` [compound 112] to `COc1cc2nccc(Oc3ccc(Nc4nnc(-c5cc(C)ccn5)c5ccccc45)cc3)c2cc1OC` [compound 117], the EC50 rises from 0.02 µM to 0.066 µM (3.3-fold). The first is the more potent here.

`COc1cnc2c(Oc3ccc(Nc4nnc(-c5ccc(C(C)C)cc5)c5ccccc45)cc3)ccnc2c1` [compound 155] and `COc1cnc2c(Oc3ccc(Nc4nnc(-c5ccc(Cl)c(C#N)c5)c5ccccc45)cc3)ccnc2c1` [compound 154] are within 1.5-fold of each other in EC50: 0.068 µM for the first, 0.061 µM for the second.

First: CCc1cc(-c2ccccc2)nnc1Nc1ccc(Oc2ccnc3cc(C#N)ccc23)cc1 [compound 149]
Second: CCc1cc(-c2ccccc2)nnc1Nc1ccc(Oc2ccnc3cc(OC)cnc23)cc1 [compound 108]
The EC50 of the first is 5.1-fold higher: 0.42 µM for the first, 0.083 µM for the second.

Compared with `COc1cnc2c(Oc3ccc(Cc4nnc(-c5ccc(C)cc5)c5ccccc45)cc3)ccnc2c1` [compound 126, 3-(methyloxy)-8-((4-((4-(4-methylphenyl)-1-phthalazinyl)methyl)phenyl)oxy)-1,5-naphthyridine], `COc1ccc2c(Oc3ccc(Nc4nnc(-c5ccccc5)c5ccccc45)cc3)ccnc2c1` [compound 91] is lower in EC50: over 1.2 µM for the first, 0.03 µM for the second. The second is the more potent here.

Work on `COc1cc2nccc(Oc3ccc(Nc4ncc(-c5ccccc5)c5ccccc45)cc3)c2cn1` [compound 145] yielded an EC50 of over 1.2 µM.

same assay, conditions: Homo sapiens, HeLa, HeLa cells, 4N ploidy, average, read-out: 24h_4NPloidy EC50_IP (uM Avg)

First: COc1cnc2c(Sc3ccc(Nc4nnc(N5CC(C)CC(C)C5)c5ccccc45)cc3)ccnc2c1 (stereo not shown) [compound 556]
Second: COc1cnc2c(Sc3ccc(Nc4nnc(N5CCCCC5)c5ccccc45)cc3)ccnc2c1 [compound 346]
The EC50 of the first is 1.6-fold higher: 0.026 µM for the first, 0.016 µM for the second.

Going from `COc1cnc2c(Oc3ccc(Nc4nnc(-c5ccc(Cl)cn5)c5ccccc45)cc3)ccnc2c1` [compound 228, 4-(5-chloro-2-pyridinyl)-N-(4-((7-(methyloxy)-1,5-naphthyridin-4-yl)oxy)phenyl)-1-phthalazinamine] to `COc1cnc2c(Oc3ccc(Nc4nnc(-c5ccc(C)c(Cl)c5)c5ccccc45)cc3)ccnc2c1` [compound 224], the EC50 falls from 0.035 µM to 0.007 µM (5-fold).

First: COCCOCCOc1ccc2nccc(Sc3ccc(Nc4nnc(-c5ccc(Cl)cc5)c5ccccc45)cc3)c2c1 [Example 389, 4-(4-Chlorophenyl)-N-(4-(6-(2-(2-methoxyethoxy)ethoxy)quinolin-4-ylthio)phenyl) phthalazin-1-amine]
Second: CS(=O)(=O)CCOc1ccc2nccc(Sc3ccc(Nc4nnc(-c5ccc(Cl)cc5)c5ccccc45)cc3)c2c1 [Example 390, 4-(4-Chlorophenyl)-N-(4-(6-(2-(methylsulfonyl)ethoxy)quinolin-4-ylthio)phenyl) phthalazin-1-amine]
The EC50 of the first is lower: 0.055 µM for the first, over 1.2 µM for the second.

Going from `O=C(c1cc2nccc(Oc3ccc(Nc4nnc(-c5ccc(Cl)cc5)c5ccccc45)cc3)c2s1)N1CCOCC1` [compound 259] to `Clc1ccc(-c2nnc(Nc3ccc(Oc4ccnc5[nH]ccc45)cc3)c3ccccc23)cc1` [compound 241], the EC50 rises from 0.051 µM to 0.101 µM (2-fold).

`COc1cnc2c(Oc3ccc(Nc4nnc(-c5ccc(Cl)cc5)c5c4CCC5)cc3)ccnc2c1` [compound 411] and `COc1ccc2c(Oc3ccc(Nc4nnc(-c5ccc(Cl)cc5)c5c4CCC5)cc3)ccnc2c1` [compound 412] cannot be ordered by EC50: over 1.2 µM for the first, over 1.2 µM for the second.

First: COCCn1ccc2nccc(Sc3ccc(Nc4nnc(-c5ccc(Cl)cc5)c5ccccc45)cc3)c21 [compound 469]
Second: COc1cc2nccc(Sc3ccc(Nc4nnc(-c5ccc(Cl)cc5)c5ccccc45)cc3)c2nc1OC [compound 598]
The EC50 of the first is 9.3-fold lower: 0.003 µM for the first, 0.028 µM for the second.

Going from `FC(F)Oc1cnc2c(Sc3ccc(Nc4nnc(-c5ccccc5)c5ccccc45)cc3)ccnc2c1` [Example 387, N-(4-(7-(difluoromethoxy)-1,5-naphthyridin-4-ylthio)phenyl)-4-phenylphthalazin-1-amine] to `Oc1cnc2c(Sc3ccc(Nc4nnc(-c5ccccc5)c5ccccc45)cc3)ccnc2c1` [compound 415], the EC50 falls from 0.12 µM to 0.015 µM (8-fold). The second is the more potent here.

Going from `FC1(F)Oc2ccc(-c3nnc(Nc4ccc(Sc5ccnc6cccnc56)cc4)c4ccccc34)cc2O1` [compound 444] to `Cc1ccc(-c2nnc(Nc3ccc(Sc4ccnc5cccnc45)cc3)c3ccccc23)cn1` [compound 553], the EC50 falls from 0.024 µM to 0.001 µM (24-fold).

Compared with `COc1cnc2c(Oc3ccc(Nc4nnc(-c5ccc6c(c5)OC(F)(F)O6)c5ccccc45)cc3)ccnc2c1` [compound 291], `COc1cnc2c(Oc3ccc(Nc4nnc(-c5cccnc5F)c5ccccc45)cc3)ccnc2c1` [compound 191] is higher in EC50: 0.045 µM for the first, over 1.2 µM for the second.

`CCc1cc(-c2cccc(Cl)c2)nnc1Nc1ccc(Oc2ccnc3cc(OC)cnc23)cc1` [compound 335] and `COc1cnc2c(Oc3ccc(Nc4nnc(-c5ccccc5)cc4C(C)C)cc3)ccnc2c1` [compound 234] are within 1.5-fold of each other in EC50: 0.191 µM for the first, 0.196 µM for the second.

First: COc1ccc2c(Sc3ccc(Nc4nnc(-c5ccc(Cl)cn5)c5ccccc45)cc3)ccnc2c1 [compound 364]
Second: Clc1ccc(-c2nnc(Nc3ccc(Sc4ccnc5cccnc45)cc3)c3ccccc23)nc1 [compound 493]
The EC50 of the first is 3.2-fold lower: 0.005 µM for the first, 0.016 µM for the second. The first is the more potent here.

Going from `COc1cnc2c(Oc3ccc(Nc4nnc(-c5ccc(Cl)cc5)c5ccccc45)cn3)ccnc2c1` [compound 222, 4-(4-chlorophenyl)-N-(6-((7-(methyloxy)-1,5-naphthyridin-4-yl)oxy)-3-pyridinyl)-1-phthalazinamine] to `COc1cnc2c(Oc3ccc(Nc4nnc(-c5cncnc5)c5ccccc45)cc3)ccnc2c1` [compound 215, N-(4-((7-(methyloxy)-1,5-naphthyridin-4-yl)oxy)phenyl)-4-(5-pyrimidinyl)-1-phthalazinamine], the EC50 rises from 0.026 µM to over 1.2 µM. The first is the more potent here.

First: c1ccc2c(-c3ccc4c(c3)OCO4)nnc(Nc3ccc(Oc4ccnc5ccncc45)cc3)c2c1 [compound 424]
Second: Cc1ccc(-c2nnc(Nc3ccc(Oc4ccnc5cccnc45)cc3)c3ccccc23)cc1N [compound 416]
The EC50 of the first is 3-fold higher: 0.024 µM for the first, 0.008 µM for the second.

First: Clc1cccc(-c2nnc(Nc3ccc(Sc4ccnc5ccsc45)cc3)c3ccccc23)c1 [compound 518]
Second: c1ccc(-c2nnc(Nc3ccc(Sc4ccnc5[nH]ncc45)cc3)c3ccccc23)cc1 [compound 352]
The EC50 of the first is 3.4-fold lower: 0.016 µM for the first, 0.055 µM for the second. The first is the more potent here.

Going from `COCCOc1ccc(-c2nnc(Nc3ccc(Sc4ccnc5cc(OC)cnc45)cc3)c3ccccc23)cc1OCCOC` [compound 473] to `COc1cnc2c(Sc3ccc(Nc4nnc(-c5cccc(C)n5)c5ccccc45)cc3)ccnc2c1` [compound 420], the EC50 falls from 0.1 µM to 0.029 µM (3.4-fold). The second is the more potent here.

First: COc1cnc2c(Oc3ccc(Nc4nnc(-c5cc(C)c(C)s5)c5ccccc45)cc3)ccnc2c1 [compound 260]
Second: COc1cnc2c(Oc3ccc(Nc4nnc(-c5cc6ccccc6s5)c5ccccc45)cc3)ccnc2c1 [compound 171]
The EC50 of the first is 2-fold lower: 0.002 µM for the first, 0.004 µM for the second. The first is the more potent here.

Going from `N#Cc1cnc2c(Oc3ccc(Nc4nnc(-c5ccccc5)c5ccccc45)cc3)ccnc2c1` [Example 44, 8-(4-(4-phenylphthalazin-1-ylamino)phenoxy)-1,5-naphthyridine-3-carbonitrile] to `Fc1cc(F)c2c(Oc3ccc(Nc4nnc(-c5ccccc5)c5ccccc45)cc3)ccnc2c1` [compound 276], the EC50 falls from over 1.2 µM to 0.054 µM. The second is the more potent here.

First: COc1cc(OC)c2c(Sc3ccc(Nc4nnc(-c5cc(C)cs5)c5ccccc45)cc3)ccnc2c1 [compound 439]
Second: COc1cc(F)cc2nccc(Oc3ccc(Nc4nnc(-c5cc(C)cs5)c5ccccc45)cc3)c12 [compound 442]
The EC50 of the first is higher: 0.113 µM for the first, under 0.0023 µM for the second. The second is the more potent here.

`COc1cnc2c(Sc3ccc(Nc4nnc(N5CCN(C(C)=O)CC5)c5ccccc45)cc3)ccnc2c1` [compound 608] and `COc1cnc2c(Sc3ccc(Nc4nnc(N5CCN(CC(F)F)CC5)c5ccccc45)cc3)ccnc2c1` [compound 507] are within 1.5-fold of each other in EC50: 0.016 µM for the first, 0.018 µM for the second.

First: COc1cnc2c(N(C)c3ccc(Nc4nnc(-c5cc(C)cs5)c5ccccc45)cc3)ccnc2c1 [compound 247]
Second: COc1cnc2c(N(C)c3ccc(Nc4nnc(-c5ccccc5)c5ccccc45)cc3)ccnc2c1 [compound 51, N-methyl-N-(7-(methyloxy)-1,5-naphthyridin-4-yl)-N′-(4-phenyl-1-phthalazinyl)-1,4-benzenediamine]
The EC50 of the first is 3.3-fold lower: 0.112 µM for the first, 0.372 µM for the second.

First: COC1CCN(c2nnc(Nc3ccc(Sc4ccnc5cc(C#N)ccc45)cc3)c3ccccc23)CC1 [compound 534]
Second: COC1CCN(c2nnc(Nc3ccc(Oc4ccnc5ccoc45)cc3)c3ccccc23)CC1 [compound 478]
The EC50 of the first is 64-fold lower: 0.006 µM for the first, 0.381 µM for the second. The first is the more potent here.

Going from `COc1cnc2c(Sc3ccc(Nc4nnc(SC)c5ccccc45)cc3)ccnc2c1` [compound 514] to `COc1cnc2c(Sc3ccc(Nc4nnc(-c5cc(C)cs5)c5ccccc45)cc3F)ccnc2c1` [compound 528], the EC50 falls from 0.02 µM to 0.009 µM (2.2-fold).

First: Cc1ccc(-c2nnc(Nc3ccc(Oc4ccnc5cc(-c6cncn6C)sc45)cc3)c3ccccc23)nc1 [compound 255]
Second: Cc1ccsc1-c1nnc(Nc2ccc(Oc3ccnc4cc(C#N)ccc34)cc2)c2ccccc12 [compound 184]
The EC50 of the first is 9.3-fold lower: 0.014 µM for the first, 0.13 µM for the second. The first is the more potent here.

`Clc1ccc(-c2nnc(Nc3ccc(Oc4cnnc5ccc(Br)cc45)cc3)c3ccccc23)cc1` [compound 369] gave an EC50 of over 1.2 µM.
